# Tests used:
# Assay in all cases: MIC determination
# Type in all cases: cell-based
# Conditions in all cases: Table 3
# [1] = system: Vancomycin-resistant Enterococcus faecalis (VRE)
# [2] = system: Vancomycin-Sensitive Enterococcus faecalis (VSE)
# [3] = system: Shigella dysenteriae (SD)
# [4] = system: Listeria monocytogenes (LM)
# [5] = system: Acinetobacter baumannii (AB)
Compound,MIC [1] [µg/mL],MIC [2] [µg/mL],MIC [3] [µg/mL],MIC [4] [µg/mL],MIC [5] [µg/mL]
CN(C)CCOc1c2[nH]c3ccc(F)cc3c2cc2c1[nH]c1ccc(F)cc12 [drawing 265],2,1,8,2,4
OC1CCN(CCCOc2c3[nH]c4ccc(Cl)cc4c3cc3c2[nH]c2ccc(Cl)cc23)CC1 [drawing 267],2,4,8,1,4
N=C(N)NCCCOc1c2[nH]c3ccc(F)cc3c2cc2c1[nH]c1ccc(F)cc12 [drawing 268],2,8,8,4,8
Fc1ccc2[nH]c3c(O[C@@H]4CCNC4)c4[nH]c5ccc(F)cc5c4cc3c2c1 [drawing 269],1,2,4,2,4
Fc1ccc2[nH]c3c(OCCCNC4=NCCN4)c4[nH]c5ccc(F)cc5c4cc3c2c1 [drawing 270],1,4,8,2,4
N=C(N)NCCCOc1c2[nH]c3ccc(Cl)cc3c2cc2c1[nH]c1ccc(Cl)cc12 [drawing 266],2,4,4,1,4

# Reference: patent US8399502B2, “Analogs of indole-3-carbinol and their use as agents against infection” (priority 2008, dated 2013)
